Assay: xn = mol fraction of the nth substance listed
Settings: Liquid, Vibrating tube method

COC(=O)c1ccccc1 [methyl benzoate] + C1CCCCC1
mass density [kg/m3]
Settings | x1 = 0.0985 | x1 = 0.1963 | x1 = 0.2939 | x1 = 0.3942 | x1 = 0.4955 | x1 = 0.596 | x1 = 0.6975 | x1 = 0.7993 | x1 = 0.8982
318.15 K, 30000 kPa | – | – | 873.9 | 905.1 | 936.2 | 967.6 | 997.8 | 1026.6 | 1054.7
318.15 K, 35000 kPa | 815.3 | 846.3 | 877.5 | 908.6 | 939.6 | 971 | 1001 | 1029.7 | 1057.8
318.15 K, 40000 kPa | 818.8 | 849.9 | 880.9 | 912 | 942.9 | 974.2 | 1004.1 | 1032.7 | 1060.7
318.15 K, 45000 kPa | 822.2 | 853.2 | 884.3 | 915.2 | 946.1 | 977.3 | 1007.1 | 1035.7 | 1063.6
318.15 K, 50000 kPa | 825.5 | 856.5 | 887.5 | 918.4 | 949.2 | 980.3 | 1010.1 | 1038.6 | 1066.5
318.15 K, 55000 kPa | 828.7 | 859.7 | 890.6 | 921.5 | 952.3 | 983.3 | 1013 | 1041.5 | 1069.3
318.15 K, 60000 kPa | 831.6 | 862.5 | 893.4 | 924.3 | 955.1 | 986 | 1015.7 | 1044.1 | 1071.8
328.15 K, 100 kPa | 776 | 807.7 | 839.6 | 871.6 | 903.6 | 935.6 | 966.7 | 996.3 | 1025.1
328.15 K, 1000 kPa | 777 | 808.7 | 840.5 | 872.5 | 904.4 | 936.4 | 967.4 | 997 | 1025.8
328.15 K, 5000 kPa | 781.2 | 812.7 | 844.5 | 876.3 | 908.1 | 939.9 | 970.6 | 1000.2 | 1028.9
328.15 K, 10000 kPa | 786.2 | 817.6 | 849.2 | 880.4 | 912.3 | 944.1 | 974.8 | 1004 | 1032.6
328.15 K, 15000 kPa | 790.7 | 822.1 | 853.6 | 885.1 | 916.5 | 948.1 | 978.6 | 1007.7 | 1036.2
328.15 K, 20000 kPa | 795.2 | 826.5 | 857.8 | 889.2 | 920.5 | 951.9 | 982.3 | 1011.3 | 1039.7
328.15 K, 25000 kPa | 799.4 | 830.6 | 861.8 | 893.1 | 924.3 | 955.6 | 985.9 | 1014.7 | 1043
328.15 K, 30000 kPa | 803.4 | 834.5 | 865.7 | 896.9 | 928 | 959.2 | 989.4 | 1018.1 | 1046.3
328.15 K, 35000 kPa | 807.3 | 838.3 | 869.4 | 900.5 | 931.5 | 962.7 | 992.7 | 1021.4 | 1049.4
328.15 K, 40000 kPa | 811 | 842 | 873 | 904.1 | 935 | 966 | 996 | 1024.5 | 1052.5
328.15 K, 45000 kPa | 814.6 | 845.5 | 876.5 | 907.5 | 938.3 | 969.3 | 999.1 | 1027.6 | 1055.5
328.15 K, 50000 kPa | 818 | 848.9 | 879.8 | 910.8 | 941.5 | 972.5 | 1002.2 | 1030.7 | 1058.5
328.15 K, 55000 kPa | 821.3 | 852.2 | 883.1 | 914 | 944.7 | 975.6 | 1005.3 | 1033.6 | 1061.4
328.15 K, 60000 kPa | 824.3 | 855.5 | 886.1 | 916.9 | 947.6 | 978.3 | 1008 | 1036.3 | 1064.2
338.15 K, 100 kPa | 766.2 | 798 | 829.9 | 861.9 | 893.9 | 926 | 957 | 986.6 | 1015.6
338.15 K, 1000 kPa | 767.2 | 799 | 830.9 | 862.8 | 894.7 | 926.8 | 957.8 | 987.4 | 1016.3
338.15 K, 5000 kPa | 771.8 | 803.4 | 835.1 | 866.9 | 898.7 | 930.5 | 961.3 | 990.8 | 1019.6
338.15 K, 10000 kPa | 777 | 808.5 | 840 | 871.6 | 903.2 | 934.9 | 965.6 | 994.9 | 1023.5
338.15 K, 15000 kPa | 782 | 813.3 | 844.7 | 876.2 | 907.6 | 939.2 | 969.6 | 998.8 | 1027.2
338.15 K, 20000 kPa | 786.7 | 817.9 | 849.2 | 880.5 | 911.8 | 943.2 | 973.5 | 1002.5 | 1030.8
338.15 K, 25000 kPa | 791.1 | 822.3 | 853.4 | 884.6 | 915.8 | 946.9 | 977.3 | 1006.2 | 1034.4
338.15 K, 30000 kPa | 795.4 | 826.4 | 857.5 | 888.6 | 919.6 | 950.8 | 980.9 | 1009.7 | 1037.8
338.15 K, 35000 kPa | 799.4 | 830.4 | 861.4 | 892.4 | 923.4 | 954.5 | 984.4 | 1013.1 | 1040.9
338.15 K, 40000 kPa | 803.3 | 834.2 | 865.2 | 896.1 | 927 | 958 | 987.8 | 1016.4 | 1044.3
338.15 K, 45000 kPa | 807 | 837.9 | 868.8 | 899.6 | 930.4 | 961.4 | 991.1 | 1019.6 | 1047.5
338.15 K, 50000 kPa | 810.6 | 841.5 | 872.3 | 903.1 | 933.8 | 964.7 | 994.4 | 1022.8 | 1050.5
338.15 K, 55000 kPa | 814.1 | 844.9 | 875.7 | 906.4 | 937.1 | 967.9 | 997.5 | 1025.8 | 1053.6
338.15 K, 60000 kPa | 817.3 | 848.1 | 878.8 | 909.7 | 940.1 | 971.1 | 1000.4 | 1028.6 | 1056.3
348.15 K, 100 kPa | 756.3 | 788.1 | 820 | 852.1 | 884.1 | 916.3 | 947.3 | 976.9 | 1005.9
348.15 K, 1000 kPa | 757.4 | 789.2 | 820.9 | 853 | 885 | 917.1 | 948.1 | 977.7 | 1006.7
348.15 K, 5000 kPa | 762.1 | 793.8 | 825.6 | 857.4 | 889.1 | 921.1 | 951.8 | 981.3 | 1010.1
348.15 K, 10000 kPa | 767.9 | 799.3 | 830.9 | 862.4 | 894 | 925.8 | 956.3 | 985.5 | 1014.3
348.15 K, 15000 kPa | 773.1 | 804.4 | 835.8 | 867.2 | 898.6 | 930.2 | 960.6 | 989.7 | 1018.2
348.15 K, 20000 kPa | 778.1 | 809.3 | 840.5 | 871.8 | 903.1 | 934.4 | 964.7 | 993.6 | 1022
348.15 K, 25000 kPa | 782.8 | 813.9 | 845 | 876.1 | 907.3 | 938.5 | 968.7 | 997.5 | 1025.7
348.15 K, 30000 kPa | 787.2 | 818.2 | 849.3 | 880.3 | 911.3 | 942.4 | 972.5 | 1001.1 | 1029.3
348.15 K, 35000 kPa | 791.5 | 822.4 | 853.4 | 884.2 | 915.2 | 946.2 | 976.1 | 1004.7 | 1032.7
348.15 K, 40000 kPa | 795.5 | 826.4 | 857.3 | 888.1 | 918.9 | 949.9 | 979.7 | 1008.2 | 1036.1
348.15 K, 45000 kPa | 799.5 | 830.3 | 861.1 | 891.8 | 922.6 | 953.4 | 983.2 | 1011.5 | 1039.4
348.15 K, 50000 kPa | 803.2 | 834 | 864.7 | 895.4 | 926.1 | 956.9 | 986.5 | 1014.8 | 1042.5
348.15 K, 55000 kPa | 806.8 | 837.6 | 868.3 | 898.9 | 929.5 | 960.2 | 989.8 | 1018 | 1045.7
348.15 K, 60000 kPa | 810.1 | 840.9 | 871.4 | 902.1 | 932.6 | 963.3 | 992.7 | 1020.9 | 1048.5
358.15 K, 100 kPa | 746 | 778 | 809.9 | 842 | 874.1 | 906.3 | 937.3 | 967 | 996.1
358.15 K, 1000 kPa | 747.1 | 779.1 | 811 | 843.1 | 875.1 | 907.3 | 938.3 | 967.9 | 996.9
358.15 K, 5000 kPa | 752.5 | 784.2 | 815.9 | 847.7 | 879.4 | 911.4 | 942 | 971.7 | 1000.6
358.15 K, 10000 kPa | 757.8 | 790 | 821.5 | 853.1 | 884.7 | 916.4 | 947 | 976.2 | 1004.9
358.15 K, 15000 kPa | 764.1 | 795.5 | 826.7 | 858.2 | 889.6 | 921.1 | 951.4 | 980.6 | 1009
358.15 K, 20000 kPa | 769.4 | 800.6 | 831.8 | 863 | 894.2 | 925.6 | 955.8 | 984.7 | 1013
358.15 K, 25000 kPa | 774.3 | 805.5 | 836.5 | 867.6 | 898.6 | 929.9 | 960 | 988.7 | 1016.9
358.15 K, 30000 kPa | 779 | 810 | 841 | 871.8 | 902.9 | 934 | 963.9 | 992.6 | 1020.6
358.15 K, 35000 kPa | 783.5 | 814.4 | 845.3 | 876.1 | 907 | 938 | 967.8 | 996.3 | 1024.2
358.15 K, 40000 kPa | 787.7 | 818.6 | 849.4 | 880.1 | 910.9 | 941.8 | 971.5 | 999.9 | 1027.8
358.15 K, 45000 kPa | 791.8 | 822.6 | 853.3 | 884 | 914.7 | 945.5 | 975.1 | 1003.4 | 1031.2
358.15 K, 50000 kPa | 795.7 | 826.5 | 857.1 | 887.8 | 918.3 | 949 | 978.6 | 1006.8 | 1034.5
358.15 K, 55000 kPa | 799.5 | 830.2 | 860.8 | 891.4 | 921.9 | 952.5 | 982 | 1010.1 | 1037.8
358.15 K, 60000 kPa | 802.9 | 832.8 | 864.2 | 894.6 | 925.1 | 955.7 | 985 | 1013.1 | 1040.9
